# Calls of active or inactive are those of the source. No cut-off for these calls is given here.
# Legend:
# [1] = target: Mu-type opioid receptor (Homo sapiens) (UniProt P35372); details: Compound concentration 10.0 uM
# [2] = target: 5-hydroxytryptamine receptor 1D (Homo sapiens) (UniProt P28221); details: Compound concentration 10.0 uM
# [3] = target: 5-hydroxytryptamine receptor 5A (Homo sapiens) (UniProt P47898); details: Compound concentration 10.0 uM
# [4] = target: Muscarinic acetylcholine receptor M4 (Homo sapiens) (UniProt P08173); details: Compound concentration 10.0 uM
# Sequence of Muscarinic acetylcholine receptor M4 (Homo sapiens) (P08173 whole entry): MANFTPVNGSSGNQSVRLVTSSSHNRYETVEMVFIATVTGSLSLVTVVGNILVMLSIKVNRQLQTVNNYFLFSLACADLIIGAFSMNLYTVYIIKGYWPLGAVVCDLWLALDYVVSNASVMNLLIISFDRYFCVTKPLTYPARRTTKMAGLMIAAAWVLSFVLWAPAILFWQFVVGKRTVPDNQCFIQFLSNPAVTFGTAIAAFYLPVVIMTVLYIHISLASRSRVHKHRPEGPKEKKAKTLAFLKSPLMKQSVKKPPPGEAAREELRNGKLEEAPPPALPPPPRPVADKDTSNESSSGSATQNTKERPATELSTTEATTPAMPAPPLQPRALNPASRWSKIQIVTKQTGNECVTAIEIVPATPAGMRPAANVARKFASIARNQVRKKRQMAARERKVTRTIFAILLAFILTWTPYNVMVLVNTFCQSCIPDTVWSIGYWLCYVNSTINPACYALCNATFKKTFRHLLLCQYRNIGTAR
# [5] = target: Alpha-1D adrenergic receptor (Homo sapiens) (UniProt P25100); details: Compound concentration 10.0 uM
# Sequence of Alpha-1D adrenergic receptor (Homo sapiens) (P25100 whole entry): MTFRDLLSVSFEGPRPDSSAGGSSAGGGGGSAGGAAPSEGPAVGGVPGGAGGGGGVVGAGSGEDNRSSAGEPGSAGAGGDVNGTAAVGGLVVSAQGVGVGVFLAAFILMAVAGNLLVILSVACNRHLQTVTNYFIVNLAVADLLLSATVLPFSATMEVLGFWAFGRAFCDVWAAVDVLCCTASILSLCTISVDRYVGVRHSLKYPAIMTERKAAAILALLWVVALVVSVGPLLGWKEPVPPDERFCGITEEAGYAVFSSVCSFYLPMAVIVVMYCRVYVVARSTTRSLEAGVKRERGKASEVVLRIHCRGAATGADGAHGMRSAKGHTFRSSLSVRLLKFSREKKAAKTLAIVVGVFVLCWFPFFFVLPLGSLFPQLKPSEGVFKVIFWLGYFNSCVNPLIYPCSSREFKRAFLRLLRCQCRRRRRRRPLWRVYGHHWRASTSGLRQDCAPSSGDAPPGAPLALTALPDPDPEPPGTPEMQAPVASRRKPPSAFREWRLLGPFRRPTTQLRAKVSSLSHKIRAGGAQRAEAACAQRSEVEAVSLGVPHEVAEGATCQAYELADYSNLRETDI
# [6] = target: Beta-1 adrenergic receptor (Homo sapiens) (UniProt P08588); details: Compound concentration 10.0 uM
# Sequence of Beta-1 adrenergic receptor (Homo sapiens) (P08588 whole entry, looked up): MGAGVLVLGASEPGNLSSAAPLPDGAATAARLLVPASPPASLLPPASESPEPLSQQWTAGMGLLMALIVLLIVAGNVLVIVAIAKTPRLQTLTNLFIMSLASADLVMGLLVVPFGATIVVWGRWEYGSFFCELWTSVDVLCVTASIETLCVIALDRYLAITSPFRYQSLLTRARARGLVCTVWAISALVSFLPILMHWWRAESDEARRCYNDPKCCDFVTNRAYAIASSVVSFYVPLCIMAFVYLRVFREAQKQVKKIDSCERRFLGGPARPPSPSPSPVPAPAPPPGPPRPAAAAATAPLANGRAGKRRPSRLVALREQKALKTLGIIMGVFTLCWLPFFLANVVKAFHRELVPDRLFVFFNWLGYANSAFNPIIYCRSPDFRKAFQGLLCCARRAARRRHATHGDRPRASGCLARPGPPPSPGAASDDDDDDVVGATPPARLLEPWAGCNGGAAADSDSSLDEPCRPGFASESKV
# [7] = target: Alpha-2B adrenergic receptor (Homo sapiens) (UniProt P18089); details: Compound concentration 10.0 uM
# Sequence of Alpha-2B adrenergic receptor (Homo sapiens) (P18089 whole entry): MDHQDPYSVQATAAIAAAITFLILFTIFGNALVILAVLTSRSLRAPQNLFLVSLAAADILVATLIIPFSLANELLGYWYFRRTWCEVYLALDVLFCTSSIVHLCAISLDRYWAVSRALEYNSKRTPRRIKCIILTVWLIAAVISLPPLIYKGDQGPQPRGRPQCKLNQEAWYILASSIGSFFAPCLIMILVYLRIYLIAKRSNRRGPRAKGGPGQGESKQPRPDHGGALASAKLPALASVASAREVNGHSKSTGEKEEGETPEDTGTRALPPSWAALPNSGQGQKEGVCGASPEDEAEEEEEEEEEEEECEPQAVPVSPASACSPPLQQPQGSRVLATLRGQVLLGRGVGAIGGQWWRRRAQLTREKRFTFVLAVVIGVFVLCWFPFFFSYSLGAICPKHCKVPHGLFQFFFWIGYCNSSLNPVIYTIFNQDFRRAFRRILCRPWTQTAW
# [8] = target: Sigma intracellular receptor 2 (Homo sapiens, UniProt Q5BJF2); details: Compound concentration 10.0 uM
# Sequence of Sigma intracellular receptor 2 (Q5BJF2 whole entry): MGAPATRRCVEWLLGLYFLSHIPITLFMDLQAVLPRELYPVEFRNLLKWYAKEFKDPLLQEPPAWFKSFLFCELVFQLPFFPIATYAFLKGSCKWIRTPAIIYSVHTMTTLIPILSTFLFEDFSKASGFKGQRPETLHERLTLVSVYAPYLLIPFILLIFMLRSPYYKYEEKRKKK
# [9] = target: T1, GABA-A receptor; anion channel (Rattus norvegicus) (UniProt O09028+P15431+P18506+P18508+P19969+P20236+P23574+P23576+P28471+P28473+P30191+P62813+P63079+P63138+Q91ZM7+Q9ES14); details: Compound concentration 10.0 uM
# [10] = target: Muscarinic acetylcholine receptor M3 (Homo sapiens) (UniProt P20309); details: Compound concentration 10.0 uM
# Sequence of Muscarinic acetylcholine receptor M3 (Homo sapiens) (P20309 whole entry, looked up): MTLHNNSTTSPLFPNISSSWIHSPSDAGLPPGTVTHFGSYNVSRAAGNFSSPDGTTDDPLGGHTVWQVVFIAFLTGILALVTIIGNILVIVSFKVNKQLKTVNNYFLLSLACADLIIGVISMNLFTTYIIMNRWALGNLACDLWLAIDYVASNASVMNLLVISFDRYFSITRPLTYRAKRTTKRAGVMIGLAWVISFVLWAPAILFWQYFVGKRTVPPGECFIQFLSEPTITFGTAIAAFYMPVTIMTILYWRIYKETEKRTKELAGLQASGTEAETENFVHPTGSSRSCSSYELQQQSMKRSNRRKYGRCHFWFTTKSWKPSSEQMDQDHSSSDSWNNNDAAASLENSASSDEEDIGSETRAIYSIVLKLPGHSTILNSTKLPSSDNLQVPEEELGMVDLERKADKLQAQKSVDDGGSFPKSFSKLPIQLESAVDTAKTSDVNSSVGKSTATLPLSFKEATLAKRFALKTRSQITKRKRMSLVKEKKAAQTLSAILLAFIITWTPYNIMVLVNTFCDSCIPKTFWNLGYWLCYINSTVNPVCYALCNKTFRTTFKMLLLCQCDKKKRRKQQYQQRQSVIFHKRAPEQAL
# [11] = target: 5-hydroxytryptamine receptor 7 (Homo sapiens) (UniProt P34969); details: Compound concentration 10.0 uM
# Sequence of 5-hydroxytryptamine receptor 7 (Homo sapiens) (P34969 whole entry): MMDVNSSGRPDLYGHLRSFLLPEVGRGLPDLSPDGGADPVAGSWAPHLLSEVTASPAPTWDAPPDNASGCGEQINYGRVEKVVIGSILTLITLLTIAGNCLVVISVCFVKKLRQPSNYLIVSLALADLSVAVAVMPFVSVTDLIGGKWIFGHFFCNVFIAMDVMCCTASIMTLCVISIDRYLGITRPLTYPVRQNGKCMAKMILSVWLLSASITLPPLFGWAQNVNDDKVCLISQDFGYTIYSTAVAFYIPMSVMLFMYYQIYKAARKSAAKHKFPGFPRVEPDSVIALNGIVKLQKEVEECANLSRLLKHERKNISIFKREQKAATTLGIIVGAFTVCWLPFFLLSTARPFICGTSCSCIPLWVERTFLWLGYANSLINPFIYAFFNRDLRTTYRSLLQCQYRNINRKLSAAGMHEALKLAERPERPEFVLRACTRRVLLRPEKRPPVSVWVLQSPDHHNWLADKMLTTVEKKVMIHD
# [12] = target: Histamine H1 receptor (Homo sapiens) (UniProt P35367); details: Compound concentration 10.0 uM
# [13] = target: T2, Muscarinic acetylcholine receptor M1 (Homo sapiens) (UniProt P11229); details: Compound concentration 10.0 uM
# T2 sequence (whole entry): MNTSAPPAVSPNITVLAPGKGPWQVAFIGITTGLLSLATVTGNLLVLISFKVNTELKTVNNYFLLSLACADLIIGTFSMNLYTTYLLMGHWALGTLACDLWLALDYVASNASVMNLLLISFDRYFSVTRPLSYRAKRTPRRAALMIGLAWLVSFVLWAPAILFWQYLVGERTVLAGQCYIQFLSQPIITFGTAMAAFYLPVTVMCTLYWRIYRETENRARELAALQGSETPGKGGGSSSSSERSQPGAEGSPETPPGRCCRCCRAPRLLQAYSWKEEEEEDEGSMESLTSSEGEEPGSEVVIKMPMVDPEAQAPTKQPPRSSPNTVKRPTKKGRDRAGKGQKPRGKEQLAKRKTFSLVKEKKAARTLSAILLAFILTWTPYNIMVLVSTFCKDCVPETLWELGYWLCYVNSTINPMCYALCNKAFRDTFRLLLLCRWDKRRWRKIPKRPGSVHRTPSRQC
# [14] = target: Sodium-dependent dopamine transporter (Homo sapiens, UniProt Q01959); details: Compound concentration 10.0 uM
# Sequence of Sodium-dependent dopamine transporter (Q01959 whole entry): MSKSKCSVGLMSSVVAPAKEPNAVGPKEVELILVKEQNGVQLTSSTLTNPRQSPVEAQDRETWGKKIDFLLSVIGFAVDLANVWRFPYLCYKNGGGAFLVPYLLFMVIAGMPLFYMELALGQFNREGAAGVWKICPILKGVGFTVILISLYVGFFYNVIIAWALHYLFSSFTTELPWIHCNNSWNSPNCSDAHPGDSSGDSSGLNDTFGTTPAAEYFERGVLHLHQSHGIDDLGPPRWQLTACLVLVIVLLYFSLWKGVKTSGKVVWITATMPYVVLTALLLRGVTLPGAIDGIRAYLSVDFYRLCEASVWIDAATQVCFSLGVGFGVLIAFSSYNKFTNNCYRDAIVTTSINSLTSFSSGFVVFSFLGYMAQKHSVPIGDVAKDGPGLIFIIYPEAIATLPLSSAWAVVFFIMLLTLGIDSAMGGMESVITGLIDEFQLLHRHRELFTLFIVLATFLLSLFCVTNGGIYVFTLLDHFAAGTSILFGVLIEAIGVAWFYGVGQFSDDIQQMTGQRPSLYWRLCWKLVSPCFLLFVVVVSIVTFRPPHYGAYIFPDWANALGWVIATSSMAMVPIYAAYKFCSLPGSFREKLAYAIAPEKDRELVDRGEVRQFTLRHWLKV
# Protein O-GlcNAcase = target: T3, Protein O-GlcNAcase (Homo sapiens, UniProt O60502); experiment: Fluorescence-based enzymatic assay
# T3 sequence (O60502 whole entry): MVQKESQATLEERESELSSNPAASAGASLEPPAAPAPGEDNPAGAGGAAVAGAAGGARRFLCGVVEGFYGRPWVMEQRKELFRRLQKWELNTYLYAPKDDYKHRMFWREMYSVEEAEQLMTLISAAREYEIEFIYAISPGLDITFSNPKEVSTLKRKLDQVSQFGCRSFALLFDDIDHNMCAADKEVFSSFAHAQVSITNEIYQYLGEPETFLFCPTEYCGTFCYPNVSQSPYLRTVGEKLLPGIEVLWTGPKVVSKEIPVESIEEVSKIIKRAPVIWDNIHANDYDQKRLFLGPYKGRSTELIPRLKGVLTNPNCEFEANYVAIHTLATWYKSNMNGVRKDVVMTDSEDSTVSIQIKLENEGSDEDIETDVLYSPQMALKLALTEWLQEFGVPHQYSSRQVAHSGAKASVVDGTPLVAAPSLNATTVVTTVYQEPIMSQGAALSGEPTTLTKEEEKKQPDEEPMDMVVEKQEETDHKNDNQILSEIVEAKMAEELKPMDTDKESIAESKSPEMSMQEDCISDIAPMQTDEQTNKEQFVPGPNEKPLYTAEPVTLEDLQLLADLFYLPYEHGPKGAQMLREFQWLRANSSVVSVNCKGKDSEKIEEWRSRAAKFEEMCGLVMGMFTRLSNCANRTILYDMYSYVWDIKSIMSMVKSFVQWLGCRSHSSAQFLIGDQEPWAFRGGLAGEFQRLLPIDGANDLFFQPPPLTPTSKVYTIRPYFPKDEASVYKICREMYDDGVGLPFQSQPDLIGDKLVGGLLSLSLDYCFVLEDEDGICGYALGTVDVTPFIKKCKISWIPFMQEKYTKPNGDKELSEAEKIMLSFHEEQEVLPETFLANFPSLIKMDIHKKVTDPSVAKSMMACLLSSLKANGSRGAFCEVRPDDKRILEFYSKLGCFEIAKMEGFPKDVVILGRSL
# Rattus norvegicus = species on record: Rattus norvegicus; details: Compound concentration 10.0 uM
# [15] = target: Sigma non-opioid intracellular receptor 1 (Homo sapiens, UniProt Q99720); details: Compound concentration 10.0 uM
# Sequence of Sigma non-opioid intracellular receptor 1 (Q99720 whole entry): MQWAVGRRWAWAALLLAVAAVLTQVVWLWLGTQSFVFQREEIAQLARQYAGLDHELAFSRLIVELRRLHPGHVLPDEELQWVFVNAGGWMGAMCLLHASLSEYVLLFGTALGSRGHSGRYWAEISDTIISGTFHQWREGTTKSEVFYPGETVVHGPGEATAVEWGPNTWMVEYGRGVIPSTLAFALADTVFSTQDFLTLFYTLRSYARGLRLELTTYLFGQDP
# [16] = target: T4, 5-hydroxytryptamine receptor 3A (Homo sapiens) (UniProt P46098); details: Compound concentration 10.0 uM
# T4 sequence (whole entry): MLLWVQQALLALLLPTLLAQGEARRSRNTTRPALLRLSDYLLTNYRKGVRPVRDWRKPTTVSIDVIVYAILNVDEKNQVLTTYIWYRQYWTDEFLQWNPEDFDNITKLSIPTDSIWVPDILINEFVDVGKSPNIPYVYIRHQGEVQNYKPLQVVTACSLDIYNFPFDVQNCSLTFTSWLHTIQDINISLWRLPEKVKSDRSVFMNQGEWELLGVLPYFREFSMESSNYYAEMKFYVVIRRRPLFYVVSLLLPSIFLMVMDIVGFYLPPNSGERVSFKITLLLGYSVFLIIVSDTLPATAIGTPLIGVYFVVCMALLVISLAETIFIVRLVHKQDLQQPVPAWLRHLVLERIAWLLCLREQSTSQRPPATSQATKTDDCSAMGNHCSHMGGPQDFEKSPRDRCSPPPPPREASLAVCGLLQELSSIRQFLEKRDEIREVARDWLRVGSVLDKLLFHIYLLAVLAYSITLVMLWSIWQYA
# [17] = target: T1, GABA-A receptor; anion channel (Rattus norvegicus); details: Compound concentration 10.0 uM; remark: listed apart in the source
# Sequence of Mu-type opioid receptor (Homo sapiens) (P35372 whole entry): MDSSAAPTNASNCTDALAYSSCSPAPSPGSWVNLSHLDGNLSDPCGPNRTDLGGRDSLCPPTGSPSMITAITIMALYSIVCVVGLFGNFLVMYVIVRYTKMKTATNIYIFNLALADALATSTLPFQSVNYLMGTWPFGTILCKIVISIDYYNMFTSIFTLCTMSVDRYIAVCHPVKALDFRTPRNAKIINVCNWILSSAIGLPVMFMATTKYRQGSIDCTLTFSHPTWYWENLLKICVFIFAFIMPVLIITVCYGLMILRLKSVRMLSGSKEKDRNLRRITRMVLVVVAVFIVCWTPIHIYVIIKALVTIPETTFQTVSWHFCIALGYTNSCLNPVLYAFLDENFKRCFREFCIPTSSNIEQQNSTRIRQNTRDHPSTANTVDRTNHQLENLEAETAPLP
# Sequence of 5-hydroxytryptamine receptor 1D (Homo sapiens) (P28221 whole entry): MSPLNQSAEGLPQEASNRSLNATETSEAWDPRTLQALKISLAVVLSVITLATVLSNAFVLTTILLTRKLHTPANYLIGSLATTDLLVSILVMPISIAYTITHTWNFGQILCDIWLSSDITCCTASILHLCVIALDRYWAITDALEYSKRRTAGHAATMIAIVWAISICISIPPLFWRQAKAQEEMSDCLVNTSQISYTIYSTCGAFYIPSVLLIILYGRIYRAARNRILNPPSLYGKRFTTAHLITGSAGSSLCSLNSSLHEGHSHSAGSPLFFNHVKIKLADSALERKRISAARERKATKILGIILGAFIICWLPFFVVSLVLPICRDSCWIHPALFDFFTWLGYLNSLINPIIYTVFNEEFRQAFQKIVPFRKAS
inhibition [1],inhibition [2],inhibition [3],inhibition [4],inhibition [5],inhibition [6],inhibition [7],inhibition [8],inhibition [9],inhibition [10],inhibition [11],inhibition [12],inhibition [13],inhibition [14],IC50 (Protein O-GlcNAcase),inhibition (Rattus norvegicus),inhibition [15],inhibition [16],inhibition [17],Compound
12.8%,11.6%,18.7%,-5.53%,8.3%,3.29%,44.8%,19%,8.07%,8.4%,9.6%,44%,6.18%,13.4%,0.0013 µM (active),5.69%,46.5%,6.87%,-8.39%,CC(=O)Nc1ncc(CN2CCC[C@H](Cc3cc(C)nc(C)c3)C2)s1 [JNJ-65355394]
27.3%,14.5%,17.8%,8.78%,7.45%,4.41%,59.1%,59.6%,43.5%,-9.98%,2.58%,44.2%,25.4%,81.9%,> 10 µM (not active),11.2%,101%,20.7%,43.6%,CC(=O)Nc1nc(CN2CCC[C@H](Cc3cc(C)nc(C)c3)C2)cs1 [JNJ-73924149]
